Assay results taken from patent US8093060B2, “Multisite phosphorylated peptide (protein) recognizing compound and detection method, imaging method, alzheimer's disease diagnosing method and reagent kit using the same” (Canon Kabushiki Kaisha, priority 2008, dated 2012).

Assays:
Type in all cases: binding
Tau210-2202P [1] = target: T1, Tau210-2202P (Homo sapiens, UniProt P10636); assay: Fluorescence spectra titration with Tau210-2202P added dropwise; conditions: compound 10 μM, pH 7.2, 50 mM HEPES buffer, 25° C.
T1 construct: made in house; host or cells: chemical solid-phase synthesis
Description: (§1) The peptide recognizing abilities of compounds 1 and 2 were evaluated by measuring fluorescence spectra. Measurement was performed under conditions of [compound 1 or 2=10 μM, an optical path length of 1 cm, pH 7.2, 50 mM HEPES buffer and 25° C. The excitation wavelength was λex=323 nm, Ex/Em=15 nm/10 nm, except λex=323 nm, Ex/Em=5 nm/10 nm for only Tau210-2202P, for compound 1, and λex=305 nm, Ex/Em=10 nm/12 nm for compound 2. […] When the peptide was excessively added, this change reached saturation. The association constants calculated from the fluorescence changes were in the order of approx. 10^5 M^−1. […] When the fluorescence spectra of compounds 1 and 2 themselves were compared, compound 2 emitted much weaker fluorescence on the short wavelength side and stronger fluorescence on the long wavelength side than compound 1 (FIG. 8B) ([compound 1 or 2=10 μM, λex=305 nm, Ex/Em=10 nm/12 nm, 50 mM HEPES buffer, 1 cm cell, 25° C.).

[2] = test system: peptides with two phosphate groups positioned with a distance of (i, i+2); assay: Fluorescence titration of compound 1 with (i, i+2) diphosphorylated tau peptides
Description: as §1

[3] = target: T2, peptides with two phosphate groups with a distance of (i, i+4) or (i, i+6) (Homo sapiens, UniProt P10636); assay: Fluorescence titration of compound 1 with (i, i+4) or (i, i+6) diphosphorylated tau peptides
T2 construct: made in house; host or cells: chemical solid-phase synthesis
Description: as §1

[4] = Fluorescence titration of compound 1 with phenyl phosphate
Description: as §1

Tau204-2163P [5] = target: T3, Tau204-2163P (Homo sapiens, UniProt P10636); assay: Fluorescence titration of compound 1 with Tau204-2163P
T3 construct: made in house; host or cells: chemical solid-phase synthesis
Description: as §1

Tau204-2162P (i, i+4) = target: T4, Tau204-2162P (i, i+4) (Homo sapiens, UniProt P10636); assay: Fluorescence titration of compound 1 with Tau204-2162P (i, i+4)
T4 construct: made in house; host or cells: chemical solid-phase synthesis
Description: as §1

Tau204-2162P(i, i+6) [6] = target: T5, Tau204-2162P(i, i+6) (Homo sapiens, UniProt P10636); assay: Fluorescence titration of compound 1 with Tau204-2162P (i, i+6)
T5 construct: made in house; host or cells: chemical solid-phase synthesis
Description: as §1

Tau210-2202P [7] = target: T1, Tau210-2202P; assay: ITC measurement of affinity, Tau210-2202P; conditions: compound 1 100 μM, peptide 2 mM, 25° C., pH 7.2, 50 mM HEPES
Description: (§2) To determine whether these fluorescence changes are associated with binding, affinity was examined by ITC measurement using, in particular, three peptides of Tau210-2202P, Tau204-2163P and Tau204-2162P(i, i+6). ITC measurement was performed under the following conditions: Tau210-2202P, [compound 1]=100 μM and [peptide]=2 mM; Tau204-2163P, [compound 1]=50 μM and [peptide]=1 mM; Tau204-2162P(i, i+6), [compound 1]=100 μM and [peptide]=3.24 mM; the number of titrations, 24; measurement temperature, 25° C.; pH 7.2; and 50 mM HEPES buffer. FIG. 11 illustrates caloric changes when Tau210-2202P was added to compound 1. FIG. 12 illustrates various thermodynamic parameters obtained from the caloric changes in the three different peptides. The caloric changes associated with the dropping of the peptide was an entropy-driven endothermic process (ΔS>0, ΔH>0). This change can be attributed to dehydration of water molecules hydrated to the compound molecules and the phosphorylated peptides along with the binding. The association constants obtained in Tau210-2202P and Tau204-2163P (K=3.33×10^5 M^−1 and K=2.88×10^5 M^−1, respectively) were similar to the values calculated from the fluorescence changes. […] On the other hand, N=0.51 was obtained in Tau204-2162P(i, i+6), and it appears that two compound molecules individually interact with two phosphate groups on the peptide.

Tau204-2163P [8] = target: T3, Tau204-2163P; assay: ITC measurement of affinity, Tau204-2163P; conditions: compound 1 50 μM, peptide 1 mM, 25° C., pH 7.2, 50 mM HEPES
Description: as §2

Tau204-2162P(i, i+6) [9] = target: T5, Tau204-2162P(i, i+6); assay: ITC measurement of affinity, Tau204-2162P(i, i+6); conditions: compound 1 100 μM, peptide 3.24 mM, 25° C., pH 7.2
Description: as §2

[10] = target: T6, phosphorylated tau aggregate (p-Tau) (Homo sapiens, UniProt P10636); assay: Fluorescence staining of phosphorylated tau aggregate prepared in vitro
T6 construct: made in house; host or cells: Escherichia coli
Description: (§3) Tau proteins (8 μM) expressed by Escherichia coli and heparin (1.6 μM) were incubated at 37° C. for 20 days to prepare a tau aggregate. A phosphorylated tau aggregate was similarly prepared using tau proteins phosphorylated with GSK-3β in vitro. The results of Pro-Q diamond staining after performing SDS-PAGE confirmed that the in-vitro phosphorylation was performed with a phosphorylation degree of 6 mol P/mol Tau.
(§4) 10 μM BODIPY-Zn(Dpa) or 10 μM thioflavine T (may be referred to as ThT) were added to the prepared tau aggregate or phosphorylated tau aggregate. After the addition, the mixture was washed twice with 0.5 mM Zn(NO3)2, and a suspension (0.5 μL) of the stained phosphorylated tau aggregate was air-dried on a cover glass and observed under a confocal laser scanning microscope (OLYMPUS FV-1000, Obj. lens 100×).

[11] = target: T7, nonphosphorylated Tau aggregate (n-Tau) (Homo sapiens, UniProt P10636); assay: Fluorescence staining of nonphosphorylated tau aggregate prepared in vitro; conditions: 10 μM dye
T7 construct: made in house; host or cells: Escherichia coli
Description: as §3, §4

T6 sequence (P10636 1-441 isoform P10636-8): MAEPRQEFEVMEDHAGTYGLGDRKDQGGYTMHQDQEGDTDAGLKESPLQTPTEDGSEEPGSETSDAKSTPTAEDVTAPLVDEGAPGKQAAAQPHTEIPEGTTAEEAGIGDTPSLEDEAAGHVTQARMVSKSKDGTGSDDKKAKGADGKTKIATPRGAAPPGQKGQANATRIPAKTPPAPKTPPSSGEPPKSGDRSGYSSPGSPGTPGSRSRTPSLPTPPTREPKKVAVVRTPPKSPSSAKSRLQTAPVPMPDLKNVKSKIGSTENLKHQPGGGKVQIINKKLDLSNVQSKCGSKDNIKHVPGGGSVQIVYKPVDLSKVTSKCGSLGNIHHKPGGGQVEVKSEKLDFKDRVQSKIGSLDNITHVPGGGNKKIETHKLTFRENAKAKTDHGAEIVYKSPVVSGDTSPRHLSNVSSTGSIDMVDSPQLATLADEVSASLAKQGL
T7 sequence (P10636 1-441 isoform P10636-8): as above

Row | SMILES | association constants calculated from the fluorescence changes (Tau210-2202P [1]) | fluorescence change on dropwise addition of Tau210-2202P (Tau210-2202P [1]) | binding constants to the peptides calculated from the fluorescence changes ([2]; (i, i+2) peptides) | fluorescence change on dropwise addition of peptide ([2]; (i, i+2) peptides, compound 1 10 μM) | Ka ([2]; (i, i+2) phosphate groups on tau sequence, summary) | fluorescence change on dropwise addition of peptide ([3]; (i, i+4) or (i, i+6) peptides) | binding to two phosphate groups ([3]; positions (i, i+4) or (i, i+6), summary) | fluorescence change [4] | fluorescence change (Tau204-2163P [5]) | fluorescence change (Tau204-2162P (i, i+4)) | fluorescence change (Tau204-2162P(i, i+6) [6]) | association constant K (ITC) (Tau210-2202P [7]) | association constant K (ITC) (Tau204-2163P [8]) | stoichiometry N (ITC) (Tau204-2162P(i, i+6) [9]) | staining of aggregate ([10]; p-Tau in the presence of pyrophosphoric acid (PPi)) | staining of aggregate ([10]; p-Tau, 10 μM dye) | staining of aggregate [11]
1 | CN(Cc1ccccn1)Cc1cc(/C=C/c2ccnc(CN(C)Cc3ccccn3)c2)ccn1.O=[N+]([O-])[O-].O=[N+]([O-])[O-].O=[N+]([O-])[O-].O=[N+]([O-])[O-].[Zn+2].[Zn+2] [compound 1] | approx. 10^5 M^−1 | dual wavelength fluorescence changes | approx. 10^5 | dual wavelength fluorescence changes | ~10^5 M^−1 | did not show marked fluorescence changes | did not bind | no marked fluorescence change | dual wavelength fluorescence changes occurred | no marked fluorescence change occurred | no marked fluorescence change occurred | 333000 M⁻¹ | 288000 M⁻¹ | 0.51 |  |  | 
2 | Cc1ccc2c(c1)sc(-c1ccc(N(C)C)cc1)[n+]2C.[Cl-] [thioflavine T, reference compound] |  |  |  |  |  |  |  |  |  |  |  |  |  |  | stained the aggregate | fluorescence of ThT and that of BODIPY-Zn(Dpa) overlapped | is observed
